# Data published in PubChem BioAssay AID1996.
# Details: buffer; pH 7.4; 200.0 µM
row,SMILES,solubility kinetic [µg/mL]
1,CCC(C)NC(=O)CN1C(=O)NC2NC(=O)NC21 (stereo not given),> 38.3
2,CC(C)n1c(O)c(C=NCc2ccccc2)c(=O)[nH]c1=S,19.6
3,O=C(c1ccc(NC(=O)C2(c3ccccc3)CCCC2)cc1)N1CCOCC1,> 56.8
4,COc1cccc(N2CN(CCc3ccccc3)CNC2=S)c1,9.8
5,Cc1nc2ccccc2nc1Nc1cccc(Cl)c1,20.2
6,Cn1c(SCC(=O)Nc2nccs2)nnc1C1CC1,> 44.3
7,COc1cc(CN2CCCCCC2)cc(OC)c1OC.O=C(O)C(=O)O,> 55.4
8,CC(C)CNC(=O)C(=O)Nc1cc2c3c(c1)C(C)C(=O)N3CCC2 (stereo not given),42.7
9,CN(CCc1ccccc1)Cc1nc(-c2cnccn2)no1,44
10,CCN(CC(=O)NCc1cccs1)C(=O)c1cc(=O)[nH]c2ccccc12,> 55.4
11,CCOC(=O)CC1C(=O)NCCN1C(=O)c1cccc(OC)c1 (stereo not given),44.4
12,COCCCNC(=O)c1ccc(CN2CCc3ccccc3C2)cc1,> 50.8
13,Cc1noc(C)c1C(=O)Nc1nc(-c2ccc(F)cc2)cs1,10.3
14,O=C(Cc1ccc(Cl)c(Cl)c1)N1CCOCC1,> 41.1
15,O=C(NCCNC(=O)c1ccccc1[N+](=O)[O-])c1ccccc1[N+](=O)[O-],11.4
16,Cc1cccc(NS(=O)(=O)c2cccc([N+](=O)[O-])c2)n1,> 44
17,CS(=O)(=O)c1ccc2nc(NC(=O)Nc3ccccc3F)sc2c1,0.8
18,COc1ccc2nc(C(F)(F)Cl)c(C#N)c(N)c2c1,3.8
19,Cc1ccccc1NC(=O)NC1(C(=O)NCc2ccco2)CCCCC1,8.5
20,O=C(Cc1ccccc1F)NC1CCCc2ccccc21 (stereo not given),16.7

row,SMILES,solubility kinetic [µg/mL]
1,COC(=O)c1sccc1NC(=O)Nc1ccc(C)cc1C,6.6
2,Cc1csc(/N=C/N(C)C)c1C#N,28
3,COc1ccc(NC(=O)CC2(CC(=O)O)CCCC2)cc1,43.6
4,COc1cc2c(cc1OC)-c1cc(Nc3ccccc3)nc(=O)n1CC2,7.5
5,O=C(O)C1C2c3ccccc3C(c3ccccc32)C1C(=O)Nc1ccccc1 (stereo not given),> 55.4
6,O=C(NC(=S)NNC(=O)c1ccco1)c1ccccc1,> 43.4
7,CCOc1cccc(/C=C(\C#N)C(=O)NC2CC2)c1,27.2
8,O=C(O)CC(C(=O)Nc1ccc(F)cc1)C1CCCO1 (stereo not given),> 42.2
9,COCc1cc(OC(=O)N(C)C)nc(-c2ccc(C)c(Cl)c2)n1,0.7
10,COc1ccc(CCNC(=O)c2ccc(OC)c(OC)c2)cc1OC,39.6
11,COc1ccc(C2C(C#N)=C(N)Oc3cccc(O)c32)cc1 (stereo not given),9.6
12,CSc1ncc(CO)n1Cc1ccccc1,> 35.1
13,Cc1cc(C)n(-c2ccnc3cc(Cl)ccc23)n1,> 38.7
14,O=C(NN1CCOCC1)c1ccccc1Br,> 42.8
15,Cc1cccn2c(=O)c(C(=O)NC3CCCCC3)c(O)nc12,5.4
16,Fc1ccccc1NC(=S)N1CCOCC1,> 36
17,S=c1nc(NCc2cccc(Cl)c2)c2ccccc2[nH]1,0.5
18,CN(C)c1ccc(SC#N)cc1,4.2
19,CC(=O)O/N=C/c1c(C)c(C=O)n2ccccc12,> 36.6
20,COc1nc(-c2ccccc2)ncc1S(=O)(=O)c1ccccc1,< 0.3

row,SMILES,solubility kinetic [µg/mL]
1,COC(=O)Cc1c(O)ccn(Cc2ccc3c(c2)OCO3)c1=O,> 47.6
2,O/N=C\c1ccc2noc(-c3ccc(Cl)cc3)c2c1,< 0.3
3,O=[N+]([O-])c1ccc(N2CCN(c3ccc(O)cc3)CC2)cn1,> 45
4,CCOc1ccc(C2C(C#N)=C(N)Oc3cc(C)[nH]c(=O)c32)cc1OC (stereo not given),> 53
5,Cc1ccc(NC(=O)CC(=O)Nc2ccc(C)cc2)cc1,< 0.3
6,CCOC(=O)C1CCCCN1Cc1cn(C)nc1-c1ccccc1F (stereo not given),> 51.8
7,CSc1ccc(Cl)c(C(=O)NCCCn2ccnc2)c1,> 46.5
8,CCn1cc(C(=S)N2CCC(C(N)=O)CC2)c2ccccc21,38.7
9,CC(=O)c1cccc(Nc2cc(C)nc3ccccc23)c1.Cl,27.8
10,CC(C)[C@H](NC(=O)NCCC1=CCCCC1)C(=O)O,> 40.3
11,CC1CCCCN1C(=O)c1cc(S(=O)(=O)N2CCOCC2)ccc1Cl (stereo not given),> 58
12,C=CCSc1nc2ccccc2c(=O)n1C1CCOC(C)(C)C1 (stereo not given),8.6
13,C/C(=N\OCc1ccccc1C#N)c1cc2ccccc2o1,1.1
14,CC(C)C(NC(=O)CCN1C(=O)c2ccccc2C1=O)c1ccccc1 (stereo not given),18.3
15,CN(C)c1ccncc1C(=O)Nc1ccc(F)cc1F,> 41.6
16,O=C(NCc1ccccc1F)c1cccc(S(=O)(=O)N2CCCCC2)c1,5.8
17,CC(=O)Nc1ccc(OCCOc2ccccc2C(C)=O)cc1,> 47
18,CCCc1cc(=O)[nH]c(SCC(=O)Nc2cc(S(=O)(=O)N(CC)c3ccccc3)ccc2Cl)n1,9.8
19,CCC(=O)NC(=S)Nc1cccc(Cl)c1N1CCCC1,0.3
20,CC1CCC(NC(=S)NCCN(C)C)CC1 (stereo not given),25.6
